{
  "source": "patent US20080051449A1",
  "about": "“PREPARATION OF ATORVASTATIN CALCIUM FORM VI AND COMPOSITIONS THEREOF” (priority 2006, published 2008)",
  "format_in_all_cases": "physicochemical",
  "key": {"[1]": {"experiment": "Stability study under various stress conditions in an open container", "description": "Stability Study of Atorvastatin Calcium Crystalline Form VI (Example 3) Subject to Various Stress Conditions in an Open Container"}, "[2]": {"experiment": "Stability study at 40° C. and 75% relative humidity", "conditions": "40° C./75% RH", "description": "Stability packaging: The sample was packed in a clear polyethylene bag and flushed with nitrogen, then tied and placed in a black polyethylene bag along with silica gel and tied. Finally the black bag was placed in a triple laminated bag and sealed with a liner sealer."}, "[3]": {"experiment": "Stability study during storage at 25° C. and 60% relative humidity", "conditions": "25° C./60% RH", "protocol": "Stability Study of Atorvastatin Calcium Crystalline Form VI (Example 3) During Storage at 25° C. and 60% Relative Humidity.\nStability packaging: same as Example 5."}, "[4]": {"experiment": "Particle size distribution by Malvern particle size analyzer", "conditions": "dispersant 0.7% dioctyl sodium sulfosuccinate in n-hexane", "description": "A particle size distribution of D50 as used herein is defined as the distribution where 50 volume percent of the particles are smaller than that size given. A particle size distribution of D10 as used herein is defined as the distribution where 10 volume percent of the particles are smaller than that size given. A particle size distribution of D90 as used herein is defined as the distribution where 90 volume percent of the particles are smaller than that size given. The D50 value is considered to be a “mean particle size.” Particle size can be determined using commercially available instrumentation, such as that sold by Malvern Instruments Ltd. of Malvern, Worcestershire, United Kingdom and using a laser diffraction principle.\nThe particle size distribution of atorvastatin calcium Form VI was determined using a Malvern® particle size analyzer, and 0.7% of dioctyl sodium sulfosuccinate in n-hexane was used as the dispersant."}, "[5]": {"conditions": "Accelerated Stability (40° C. and 75% relative humidity) 24 hours"}, "[6]": {"conditions": "Compression (2000 kg/cm^2) for 1 hour"}, "[7]": {"conditions": "UV Photostability λ = 254 nm, 24 hours"}},
  "data": [
    {"substance": "[R—(R*,R*)]-2-(4-fluorophenyl)-β,δ-dihydroxy-5-(1-methylethyl)-3-phenyl-4[(phenyl amino) carbonyl]-IH-pyrrole-1-heptanoic acid, calcium salt (2:1) trihydrate [Atorvastatin calcium Form VI (Example 3)]", "values": [
      {"measurement": "Total Impurities", "setting": "[1]; [5]", "value": 0.29, "unit": "% w/w"},
      {"measurement": "Water by KF", "setting": "[1]; [5]", "value": 1.85, "unit": "% w/w"},
      {"measurement": "Total Impurities", "setting": "[1]; [6]", "value": 0.32, "unit": "% w/w"},
      {"measurement": "Water by KF", "setting": "[1]; [6]", "value": 1.68, "unit": "% w/w"},
      {"measurement": "Total Impurities", "setting": "[1]; Initial analysis", "value": 0.26, "unit": "% w/w"},
      {"measurement": "Water by KF", "setting": "[1]; Initial analysis", "value": 1.60, "unit": "% w/w"},
      {"measurement": "Total Impurities", "setting": "[1]; Thermal (90° C.) 24 hours", "value": 0.7, "unit": "% w/w"},
      {"measurement": "Water by KF", "setting": "[1]; Thermal (90° C.) 24 hours", "value": 1.04, "unit": "% w/w"},
      {"measurement": "Total Impurities", "setting": "[1]; [7]", "value": 0.27, "unit": "% w/w"},
      {"measurement": "Water by KF", "setting": "[1]; [7]", "value": 1.54, "unit": "% w/w"},
      {"measurement": "Assay by HPLC", "setting": "[2]; 1 month", "value": 99.2, "unit": "% w/w"},
      {"measurement": "Moisture Content", "setting": "[2]; 1 month", "value": 1.4, "unit": "% w/w"},
      {"measurement": "Total Impurities by HPLC", "setting": "[2]; 1 month", "value": 0.14, "unit": "% w/w"},
      {"measurement": "Assay by HPLC", "setting": "[2]; 3 months", "value": 99.2, "unit": "% w/w"},
      {"measurement": "Moisture Content", "setting": "[2]; 3 months", "value": 1.6, "unit": "% w/w"},
      {"measurement": "Total Impurities by HPLC", "setting": "[2]; 3 months", "value": 0.15, "unit": "% w/w"},
      {"measurement": "Assay by HPLC", "setting": "[2]; 6 months", "value": 99.2, "unit": "% w/w"},
      {"measurement": "Moisture Content", "setting": "[2]; 6 months", "value": 1.6, "unit": "% w/w"},
      {"measurement": "Total Impurities by HPLC", "setting": "[2]; 6 months", "value": 0.24, "unit": "% w/w"},
      {"measurement": "Assay by HPLC", "setting": "[2]; Initial", "value": 99.1, "unit": "% w/w"},
      {"measurement": "Moisture Content", "setting": "[2]; Initial", "value": 1.4, "unit": "% w/w"},
      {"measurement": "Total Impurities by HPLC", "setting": "[2]; Initial", "value": 0.18, "unit": "% w/w"},
      {"measurement": "Assay by HPLC", "setting": "[3]; 1 month", "value": 99.1, "unit": "% w/w"},
      {"measurement": "Moisture Content", "setting": "[3]; 1 month", "value": 1.5, "unit": "% w/w"},
      {"measurement": "Total Impurities by HPLC", "setting": "[3]; 1 month", "value": 0.16, "unit": "% w/w"},
      {"measurement": "Assay by HPLC", "setting": "[3]; 3 months", "value": 99.1, "unit": "% w/w"},
      {"measurement": "Moisture Content", "setting": "[3]; 3 months", "value": 1.7, "unit": "% w/w"},
      {"measurement": "Total Impurities by HPLC", "setting": "[3]; 3 months", "value": 0.14, "unit": "% w/w"},
      {"measurement": "Assay by HPLC", "setting": "[3]; 6 months", "value": 99.3, "unit": "% w/w"},
      {"measurement": "Moisture Content", "setting": "[3]; 6 months", "value": 1.5, "unit": "% w/w"},
      {"measurement": "Total Impurities by HPLC", "setting": "[3]; 6 months", "value": 0.23, "unit": "% w/w"},
      {"measurement": "Assay by HPLC", "setting": "[3]; Initial", "value": 99.1, "unit": "% w/w"},
      {"measurement": "Moisture Content", "setting": "[3]; Initial", "value": 1.4, "unit": "% w/w"},
      {"measurement": "Total Impurities by HPLC", "setting": "[3]; Initial", "value": 0.18, "unit": "% w/w"},
      {"measurement": "Particle Size D10", "setting": "[4]", "value": 1.32, "unit": "μm"},
      {"measurement": "Particle Size D50", "setting": "[4]", "value": 5.22, "unit": "μm"},
      {"measurement": "Particle Size D90", "setting": "[4]", "value": 24.54, "unit": "μm"}
    ]}
  ]
}
